Assay results reported in patent publication US20230348419A1, “BIAMINOQUINOLINES AND NANOFORMULATIONS FOR CANCER TREATMENT” (The Regents of the University of California, priority 2019, published 2023).
Like-named read-outs stand apart in the source and are kept apart here.

Columns and labels:
[1] = Nanoparticle characterization of BAQ NPs (DLS, TEM); type: physicochemical; conditions: assembled NPs in water; for PDI / Size (nm): DLS
Procedure: (§1) Preparation and characterization of BAQ ONNs. NPs were prepared through the re-precipitation method. BAQ derivatives in methanol were added dropwise into MilliQ water while stirring for 5 min (volume ratio, 1:10), and then homogenous NPs were obtained after rotary evaporation (40° C., 20 min), followed by the characterization with Zetasizer Nano ZS (Malvern). The TEM samples were prepared by dropping 0.5 mM NPs on carbon square mesh and dried naturally, which were then observed under the Talos L120C TEM (FEI) at an accelerating voltage of 80 kV. To determine the drug content in nanoformulations, the prepared drug-loaded NPs were cut off by centrifugal filter (ultracel-10 kDa, Millipore), and the absorbance of filtrate (diluted with DMSO, 1:10, volume ratio) was measured for calculation of drug concentrations.

[2] = test system: BXPC-3; test: MTS cell viability assay; type: cell-based, human; conditions: 24 h; read-out: IC50 (μM) in the 24 h treatment BXPC-3
Procedure: (§2) Cell line and cell culture. The human pancreatic cancer cell lines (MIA PaCa-2, BXPC3, and PANC-1) were originally purchased from ATCC and were kindly provided by Dr. Shiro Urayama's Lab. HT29, HCT116, H460, MCF7, NIH/3T3, and IMR-90 cell lines were purchased from ATCC. Bone marrow cells were collected from the leg bone marrows of FVB/N mice. All the cells were cultured at 37° C. in a humidified atmosphere of 5% CO2/95% air using the corresponding medium supplemented with 10% fetal bovine serum, […] according to ATCC protocol. All the cell lines have been tested for mycoplasma contamination routinely.
(§3) Cell viability, cell growth and colony formation. Cell viability was assessed by the MTS assay. Briefly, cells in 96-well plates (4,000 cell per well) were treated as indicated, followed by the incubation with MTS regents for 4 h. OD values (490 nm) were determined via a microplate reader. Results were shown as the average cell viability calculated from the formula of [(ODtreat−ODblank)/(ODcontrol−ODblank)×100%]. Drug combination data were analyzed by Combenefit 2.02. In cell growth assay, cells in 6-well plates (50,000 cell per well) were treated as indicated and were counted manually every 24 h. Colony formation assay was also performed on 6-well plates with a starting density of 1,000-2,000 cells per well. After incubated as indicated for 10-20 days, cells were washed with PBS and stained with the solution of crystal violet and methanol for 20 min.

[3] = test system: PANC-1; test: MTS cell viability assay; type: cell-based, human; conditions: 24 h; read-out: IC50 (μM) in the 24 h treatment PANC-1
Procedure: as §2, §3

[4] = test system: MIA PaCa-2; test: MTS cell viability assay; type: cell-based, human; conditions: read-out: IC50 (μM) in the 24 h treatment MIA PaCa-2
Procedure: as §2, §3

[5] = test system: H460; test: MTS cell viability assay; type: cell-based; conditions: 24 h; read-out: IC50 (μM) in the 24 h treatment H460
Procedure: as §2, §3

[6] = test system: MCF-7; test: MTS cell viability assay; type: cell-based; conditions: 24 h; read-out: IC50 (μM) in the 24 h treatment MCF-7
Procedure: as §2, §3

[7] = test system: HT29; test: MTS cell viability assay; type: cell-based; conditions: read-out: IC50 (μM) in the 24 h treatment HT29
Procedure: as §2, §3

[8] = Drug loading using BAQ13 NPs; type: physicochemical; conditions: for PDI / Size/diameter: BAQ13 NPs loaded with the drug or dye; for Encapsulation efficiency / Drug-loading content: drug or dye loaded in BAQ13 NPs; for Drug-loading content: mass ratio
Procedure: as §1
Next investigation was whether liposome-like BAQ ONNs can encapsulate additional agents. Upon nanoprecipitation of BAQ13 and various agents, homogeneous NPs with monomodal size distributions spontaneously formed (Table 2 and FIG. 9G).

[9] = test system: HT29 tumours; test: HT29 xenograft model; conditions: mice bearing HT29 tumours
[10] = test system: HCT116; test: MTS cell viability assay; type: cell-based; conditions: Homo sapiens, HCT-116, 48 h; read-out: IC50 values from the 48 h MTS assay (μM) HCT116
Procedure: as §2, §3

In the case of CCCCCCCCCCCCCCCCCCN(CCNc1ccnc2cc(Cl)ccc12)CCNc1ccnc2cc(Cl)ccc12 [BAQ18], the “Zeta Potential (mV)” value [1] is reported as 39.5 ± 0.8 mV, the PDI [1] is reported as 0.093 and the “Size (nm)” value [1] is reported as 96.7 ± 1.6 nm. The IC50 [2] was > 90 µM, the IC50 [3] was > 90 µM and the IC50 ([4]; 24 h) was > 90 µM. The IC50 [5] was > 90 µM, the IC50 [6] was > 90 µM and the IC50 ([7]; 24 h) was > 100 µM.
In the case of CCN(CCO)CCCC(C)Nc1ccnc2cc(Cl)ccc12 (centres unmarked) [HCQ, hydroxychloroquine], the IC50 ([4]; Homo sapiens, MIA PaCa-2, 24 h) is reported as 79.6 ± 8.5 µM and the IC50 ([7]; Homo sapiens, HT-29, 24 h) is reported as > 75 µM.
For Cc1sc2c(c1C)C(c1ccc(Cl)cc1)=N[C@@H](CC(=O)OC(C)(C)C)c1nnc(C)n1-2 [JQ1], the PDI [8] was 0.048, the Size/diameter [8] was 110 nm and the Encapsulation efficiency [8] was 92%. For the same compound, the Drug-loading content [8] was 50%.
For CCCCCCCCCCCCCCCCN(CCNc1ccnc2cc(Cl)ccc12)CCNc1ccnc2cc(Cl)ccc12 [BAQ16], the “Zeta Potential (mV)” value [1] was 40.4 ± 0.5 mV, the PDI [1] was 0.082 and the “Size (nm)” value [1] was 119.7 ± 2.1 nm. For the same compound, the IC50 [2] was 27.6 ± 2.8 µM, the IC50 [3] was > 90 µM and the IC50 ([4]; 24 h) was 60.7 ± 13.9 µM. The IC50 [5] was > 90 µM, the IC50 [6] was > 90 µM and the IC50 ([7]; 24 h) was > 80 µM.
For CCCCCCCCCCCCCCN(CCNc1ccnc2cc(Cl)ccc12)CCNc1ccnc2cc(Cl)ccc12 [BAQ14], the “Zeta Potential (mV)” value [1] was 39.1 ± 0.4 mV, the PDI [1] was 0.069 and the “Size (nm)” value [1] was 137.9 ± 4.6 nm. The IC50 [2] was 7.5 ± 0.7 µM, the IC50 [3] was 10.4 ± 1.8 µM and the IC50 ([4]; 24 h) was 16 ± 1.8 µM. It also gave an IC50 [5] of 24 ± 0.3 µM, an IC50 [6] of 28.5 ± 3.5 µM and an IC50 ([7]; 24 h) of 9.6 ± 2 µM.
CC(C)C[C@H](NC(=O)[C@H](Cc1ccccc1)NC(=O)c1cnccn1)B(O)O [Bortezomib] gave a PDI [8] of 0.09, a Size/diameter [8] of 92 nm and an Encapsulation efficiency [8] of 89%. It also gave a Drug-loading content [8] of 50%.
With CCc1c2c(nc3ccc(OC(=O)N4CCC(N5CCCCC5)CC4)cc13)-c1cc3c(c(=O)n1C2)COC(=O)[C@]3(O)CC [Irinotecan] the Median Survival ([9]; survival analysis in text) was 36 days, the “Median Survival” value ([9]; treatment terminated on the 24th day) was 36 days and the IC50 [10] was 17 ± 1 µM.
Work on Nc1cccc2c1CN(C1CCC(=O)NC1=O)C2=O (centres unmarked) [Lenalidomide] yielded a PDI [8] of 0.069, a Size/diameter [8] of 85 nm and an Encapsulation efficiency [8] of 88%. The Drug-loading content [8] was 50%.
